Results reported in US8586719B2, “Triterpenes for modulating gene expression and cell membrane, and as antiprotozoal agents” (Pacific Arrow Limited, priority 2005, dated 2013).
Values after ≈ are worked out from the molar mass of the structure shown.

How the values were obtained:
Fibronectin [1] = assay: Fibronectin secretion, brain glioblastoma T98G cells; type: cell-based, human; details: Homo sapiens, T98G
Experimental: (§1) Reduction of Fibronectin secretion from ES2 cells after xanifolia-Y treatment. • (Results of F1, F3, F4, F5, F7, F8, F11, F12A, F15, F16, F17) Data in PCT/US2008/002086, 1188-ALA-PCT, filed Feb. 15, 2008 are incorporated herein by reference • (F11) For lung carcinoma cells (H460), at concentration of 20 ug/ml, there are inhibitions of Fibronectin secretion ranged from 20-60%. • (F12A) For bladder carcinoma cells (HTB-9), Xanifolia-Y (10 ug/ml) inhibits 50% of Fibronectin secretion. • (F15) In liver HepG2 cells. 10 ug/ml of xanifolia-Y inhibits 42% secretion of Fibronectin. • (F16) Incubation of brain glioblastoma T98G cells with 10 ug/ml of xanifolia-Y inhibits 27% Fibronectin secretion and with 20 ug/ml Y inhibits 74% Fibronectin secretion. • (F17) For skin SK-MeI-5 cells, the inhibition is 40-57% with 20 ug/ml of Xanifolia-Y.

Angiopoietin 2 (Ang2) = assay: Up regulation of Angiopoietin 2 (Ang2) in ES2 cells; type: cell-based, human; details: study in PCT/US2008/002086
Text: The results of study in PCT/US2008/002086, 1188-ALA-PCT, filed Feb. 15, 2008 are incorporated herein by reference.

angiopoietin 1 = assay: Microarray gene expression in ES2 cells: angiopoietin 1; type: cell-based, human; details: micro array
Text: (§2) The composition comprises bioactive compounds from natural plants or synthesis. The majority of the plants are from the Sapindaceae family, which has 140-150 genera with 1400-2000 species. The program is based on our purification methods and biological assays including the MTT assay See International Application No. PCT/US05/31900, filed Sep. 7, 2005, U.S. Ser. No. 11/289,142, filed Nov. 28, 2005, and U.S. Ser. No. 11/131,551, filed May 17, 2005, and PCT/US2008/002086, 1188-ALA-PCT, filed Feb. 15, 2008, the contents of which are incorporated herein by reference. The details of Analysis of gene expression of ES2 cells after Y-treatment by Microarray, Data Analysis Methods and Western blot in PCT/US2008/002086, 1188-ALA-PCT, filed Feb. 15, 2008, the contents of which are incorporated herein by reference
(§3) Angiogenesis is a process involving the growth of new blood vessels. It is a normal process in growth and development. However, this is also a fundamental step in the transition of tumors from a dormant state to a malignant state. The angiopoietins are protein growth factors that modulate angiogenesis. […]

Fibronectin [2] = assay: Fibronectin secretion, bladder carcinoma cells (HTB-9); type: cell-based, human; details: Homo sapiens; Bladder HTB-9; 10 ug/ml (table: label suffix -10)
Experimental: as §1

[3] = tested on: Leishmania Major (promastigotes); assay: Cell growth of Leishmania parasites by MTT assay; type: cell-based; details: Leishmania major, read-out: IC50, cytotoxic to Leishmania Major (promastigotes)
Experimental: Method: Leishmania parasites (Leishmania major: MRHO/SU/59/P/LV39) were grown in culture medium in a T75 flask at room temperature. Promastigotes of Leishmania major (approximately 40 million per ml) were used in the experiment. 1.2 ml cell culture was transferred to a well of the 24-wells plate. Saponin Y10 (0.2 ml in medium) with different concentrations (final 6.25-200 ug/ml) was added to culture and cells were grown for 1-5 days at room temperature. At the end of drug-treatment, 150 ul of MTT (5 mg/ml in PBS) was added to each well and incubated for 4 hours. Formazan formed in cells was dissolved with DMSO and the OD at 490 nm was determined by an ELISA reader.

ANGPT2 (angiopoietin 2) = assay: Gene expression by Real-time PCR: ANGPT2; type: cell-based; details: DMSO control = 100
Text: (§4) Determination of gene expression by Real-time PCR method (Brilliant QPCR, Agilent Technologies): The real-time polymerase chain reactions further confirm the results obtained from micro array analysis. The Real-time PCR results (shown below) confirmed that Compound Y3 and YM increase the expression of the genes: ANGPT2, DDIT3, LIF and NFKB1Z

[4] = tested on: RAB3B, member RAS oncogene family; assay: Microarray gene expression in ES2 cells: RAB3B; type: cell-based, human
Text: as §2

angiopoietin 2 = assay: Microarray gene expression in ES2 cells: angiopoietin 2; type: cell-based, human; details: micro array
Text: as §2, §3

TNC (Tenascin C) = assay: Gene expression by Real-time PCR: TNC; type: cell-based; details: control = 100
Text: as §4

angiopoietin-like 1 = assay: Microarray gene expression in ES2 cells: angiopoietin-like 1; type: cell-based, human; details: micro array
Text: as §2, §3

[5] = tested on: insulin-like growth factor binding protein 6 (IGFBP6); assay: Microarray gene expression in ES2 cells: IGFBP6; type: cell-based, human; details: probe set 203851_at
Text: as §2

[6] = tested on: insulin-like growth factor binding protein 4 (IGFBP4); assay: Microarray gene expression in ES2 cells: IGFBP4; type: cell-based, human; details: probe set 201508_at
Text: as §2

ES2 cells = assay: Microarray experiments: lists of modulated genes; type: cell-based, human
Text: as §2

Glypican 6 (GPC6) = assay: Microarray gene expression in ES2 cells: Glypican; type: cell-based, human
Text: as §2

[7] = tested on: insulin-like growth factor binding protein 3 (IGFBP3); assay: Microarray gene expression in ES2 cells: IGFBP3; type: cell-based, human
Text: as §2

C/C=C(/C)C(=O)O[C@H]1[C@H](OC(=O)/C(C)=C\C)[C@@]2(CO)C(CC1(C)C)C1=CCC3[C@@]4(C)CC[C@H](O[C@@H]5OC(C(=O)O)[C@@H](O)[C@@H](O[C@@H]6O[C@@H](CO)[C@@H](O)C6O)C5O[C@@H]5OC(CO)[C@H](O)[C@@H](O)C5O)C(C)(C)C4CC[C@@]3(C)[C@]1(C)[C@@H](O)[C@H]2O (stereo partly drawn) [Y, 3-O-[β-D-galactopyranosyl(1→2)]-α-L-arabinofuranosy (1→3)-β-D-glucuronopyranosyl-21,22-O-diangeloyl-3β, 15α, 16α, 21β, 22α, 28-hexahydroxyolean-12-ene]
inhibition at 10 µg/mL (Fibronectin [1]; read-out: % inhibition of Fibronectin secretion): 27%
inhibition at 20 µg/mL (Fibronectin [1]; read-out: inhibition of Fibronectin secretion): 74%
Angiopoietin 2 (Ang2) in ES2 cells (Angiopoietin 2 (Ang2)): Up regulation
gene expression of angiopoietin 1 (angiopoietin 1): inhibit
inhibition at 10 µg/mL (Fibronectin [2]): 50%
IC50 [3]: 15 µg/mL (≈ 13.1 µM)
ANGPT2 expression, % of control (ANGPT2 (angiopoietin 2)): 300 % of control
RAB3B expression, treated/D (DMSO control) ([4]; ID 205924_at): −1.7
RAB3B expression, treated/D (DMSO control) ([4]; ID 205925_s_at): −1.2
RAB3B expression, treated/D (DMSO control) ([4]; ID 227123_at): −1.6
RAB3B expression, treated/D (DMSO control) ([4]; ID 242629_at): −3.5
gene expression of angiopoietin 2 (angiopoietin 2): promote
TNC expression, % of control (TNC (Tenascin C)): 41.1 % of control
gene expression of angiopoietin-like 1 (angiopoietin-like 1): inhibit
IGFBP6 expression, treated/D (DMSO control) [5]: −1.3
IGFBP4 expression, treated/D (DMSO control) [6]: −1.7
genes expression of the adhesion-related genes listed in b182 (FN1, ITGAV, LAMA4 ...) (ES2 cells): inhibited
gene expression of the genes listed in b176 (ES2 cells; Microarray): modulates
gene expression of the genes listed in b178 (ES2 cells; Microarray): inhibiting
gene expression of the genes listed in b180 (ES2 cells; Microarray): stimulates
GPC6 expression, treated/D (DMSO control) (Glypican 6 (GPC6); probe set 227059_at): −2.2
GPC6 expression, treated/D (DMSO control) (Glypican 6 (GPC6); probe set 243865_x_at): −2.7
IGFBP3 expression, treated/D (DMSO control) ([7]; probe set 210095_s_at): −4.0
IGFBP3 expression, treated/D (DMSO control) ([7]; probe set 212143_s_at): −3.7
